Structures can show the parent of a compound that is named as a salt.
Biological target: T1, p-glycoprotein (Homo sapiens, UniProt P08183)
T1 construct: Multidrug-resistant and -sensitive cells of the T-lymphoblastoid leukemia cell lines CCRF-VCR 1000 and CCRF-CEM are withdrawn from the cell culture; endogenous in cells; host or cells: CCRF-VCR 1000 (multidrug-resistant); CCRF-CEM (sensitive)
Assay: Measurement of P-glycoprotein inhibition (Rhodamine 123 accumulation)
Assay type: cell-based
Procedure: Multidrug-resistant and -sensitive cells of the T-lymphoblastoid leukemia cell lines CCRF-VCR 1000 and CCRF-CEM are withdrawn from the cell culture and harvested by centrifugation. The cells are taken up in RPMI medium (pH=7.3) without fetal calf serum and incubated at 37° C. for 30 min with the rising concentrations of resistance modulators. […] The excitation wavelength is 488 nm.
The number of the investigated compounds correspond to the numbers in the examples.

T1 sequence (P08183 whole entry): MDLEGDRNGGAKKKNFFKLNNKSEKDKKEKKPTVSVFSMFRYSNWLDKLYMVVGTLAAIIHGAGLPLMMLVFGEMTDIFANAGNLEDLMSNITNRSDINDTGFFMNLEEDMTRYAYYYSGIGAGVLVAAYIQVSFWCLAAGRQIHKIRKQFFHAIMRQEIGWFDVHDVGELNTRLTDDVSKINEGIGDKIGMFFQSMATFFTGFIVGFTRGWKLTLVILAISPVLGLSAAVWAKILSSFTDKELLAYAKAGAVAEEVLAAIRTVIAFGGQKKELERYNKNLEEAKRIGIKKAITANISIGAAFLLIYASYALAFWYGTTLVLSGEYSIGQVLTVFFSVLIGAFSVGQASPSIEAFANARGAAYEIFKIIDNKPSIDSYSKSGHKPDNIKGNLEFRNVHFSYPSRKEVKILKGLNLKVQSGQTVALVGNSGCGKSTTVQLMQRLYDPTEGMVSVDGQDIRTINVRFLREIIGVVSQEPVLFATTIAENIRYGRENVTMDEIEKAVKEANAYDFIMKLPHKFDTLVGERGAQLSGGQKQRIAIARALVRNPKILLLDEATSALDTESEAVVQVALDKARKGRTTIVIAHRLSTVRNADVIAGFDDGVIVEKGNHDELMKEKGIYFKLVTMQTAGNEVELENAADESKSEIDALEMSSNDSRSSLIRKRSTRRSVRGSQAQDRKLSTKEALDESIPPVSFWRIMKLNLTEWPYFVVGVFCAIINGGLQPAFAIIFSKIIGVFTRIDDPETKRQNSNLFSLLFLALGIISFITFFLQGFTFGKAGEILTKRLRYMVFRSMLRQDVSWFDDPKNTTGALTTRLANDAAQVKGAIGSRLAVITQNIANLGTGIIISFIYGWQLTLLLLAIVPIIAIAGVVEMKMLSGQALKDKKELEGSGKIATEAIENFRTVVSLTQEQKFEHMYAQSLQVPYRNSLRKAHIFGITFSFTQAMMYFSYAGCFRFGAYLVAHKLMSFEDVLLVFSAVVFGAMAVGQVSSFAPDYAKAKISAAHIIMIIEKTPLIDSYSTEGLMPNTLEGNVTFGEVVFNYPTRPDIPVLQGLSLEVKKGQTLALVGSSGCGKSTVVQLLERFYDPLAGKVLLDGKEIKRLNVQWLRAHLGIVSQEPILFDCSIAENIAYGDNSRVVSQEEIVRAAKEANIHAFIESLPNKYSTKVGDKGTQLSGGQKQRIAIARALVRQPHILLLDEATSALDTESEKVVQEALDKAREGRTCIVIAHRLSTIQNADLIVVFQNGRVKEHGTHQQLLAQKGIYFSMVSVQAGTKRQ

Structure (SMILES)	EC50	pEC50 (CCRF-VCR 1000 and CCRF-CEM cells, Rhodamine 123 0.8 mg/l, 30 min preincubation, 1 h at 37° C., RPMI without fetal calf serum, pH 7.3)
CCCn1cnc2nc(C)c(C(=O)CCCCCCCCCCN3CCC(c4ccccc4)(c4ccccc4)CC3)c(-c3cccc([N+](=O)[O-])c3)c2c1=O [Compound 7]	50.1 nM	–
Cc1nc2ncn(Cc3ccccc3)c(=O)c2c(-c2cccc([N+](=O)[O-])c2)c1C(=O)CCCCCCCN1CCC(c2ccccc2)(c2ccccc2)CC1 [Compound 22]	39.8 nM	–
CCCCCn1cnc2nc(C)c(C(=O)CCCCCCCN3CCC(c4ccccc4)(c4ccccc4)CC3)c(-c3cccc([N+](=O)[O-])c3)c2c1=O [Compound 4]	20 nM	–
CCCn1cnc2nc(C)c(C(=O)CCCCCCCN3CCC(c4ccccc4)(c4ccccc4)CC3)c(-c3cccc([N+](=O)[O-])c3)c2c1=O [Compound 3]	25.1 nM	–
CCCCCn1c(C)nc2nc(C)c(C(=O)CCCCCCCN3CCC(c4ccccc4)(c4ccccc4)CC3)c(-c3cccc([N+](=O)[O-])c3)c2c1=O [Compound 14]	79.4 nM	–
CCCCCn1cnc2nc(C)c(C(=O)CCCCCCCCCCN3CCC(c4ccccc4)(c4ccccc4)CC3)c(-c3cccc([N+](=O)[O-])c3)c2c1=O [Compound 8]	31.6 nM	–
Cc1nc2ncn(CCN3CCOCC3)c(=O)c2c(-c2cccc([N+](=O)[O-])c2)c1C(=O)CCCCCCCCCCN1CCC(c2ccccc2)(c2ccccc2)CC1 [Compound 12]	25.1 nM	–
Cc1nc2nc(C)n(CCCN3CCOCC3)c(=O)c2c(-c2cccc([N+](=O)[O-])c2)c1C(=O)CCCCCCCCCCN1CCC(c2ccccc2)(c2ccccc2)CC1 [Compound 15]	31.6 nM	–
COc1ccc(-n2cnc3nc(C)c(C(=O)CCCCCCCCCCN4CCC(c5ccccc5)(c5ccccc5)CC4)c(-c4cccc([N+](=O)[O-])c4)c3c2=O)cc1 [Compound 11]	39.8 nM	–
CCCn1c(C)nc2nc(C)c(C(=O)CCCCCCCN3CCC(c4ccccc4)(c4ccccc4)CC3)c(-c3cccc([N+](=O)[O-])c3)c2c1=O [Compound 13]	50.1 nM	–
Cc1nc2nc(C)n(CCN3CCCCC3)c(=O)c2c(-c2cccc([N+](=O)[O-])c2)c1C(=O)CCCCCCCN1CCC(c2ccccc2)(c2ccccc2)CC1 [Compound 18]	50.1 nM	–
Cc1nc2nc(C)n(Cc3ccccc3)c(=O)c2c(-c2cccc([N+](=O)[O-])c2)c1C(=O)CCCCCCCN1CCC(c2ccccc2)(c2ccccc2)CC1 [Compound 23]	50.1 nM	–
Cc1nc2ncn(-c3ccccc3)c(=O)c2c(-c2cccc([N+](=O)[O-])c2)c1C(=O)CCCCCCCCCCN1CCC(c2ccccc2)(c2ccccc2)CC1 [Compound 9]	63.1 nM	–
Cc1nc2ncn(CCCN3CCOCC3)c(=O)c2c(-c2cccc([N+](=O)[O-])c2)c1C(=O)CCCCCCCCCCN1CCC(c2ccccc2)(c2ccccc2)CC1 [Compound 17]	25.1 nM	–
CCCCn1cnc2nc(C)c(C(=O)CCCCCCCCCCN3CCC(c4ccccc4)(c4ccccc4)CC3)c(-c3cccc([N+](=O)[O-])c3)c2c1=O [Compound 6]	15.8 nM	–
Cc1nc2nc(C)n(CCN3CCOCC3)c(=O)c2c(-c2cccc([N+](=O)[O-])c2)c1C(=O)CCCCCCCCCCN1CCC(c2ccccc2)(c2ccccc2)CC1 [Compound 1, 3,4-Dihydro-2,7-dimethyl-3-[2-(4-morpholinyl)ethyl]-5-3-nitrophenyl)-4-oxo-6-[1-oxo-11-(4,4-diphenyl-1-piperidinyl)undecyl]-pyrido[2,3-d]pyrimidine dihydrochloride]	25.1 nM	–
CCCCn1c(C)nc2nc(C)c(C(=O)CCCCN3CCC(c4ccccc4)(c4ccccc4)CC3)c(-c3cccc([N+](=O)[O-])c3)c2c1=O [Compound 19]	100 nM	–
CCCCn1cnc2nc(C)c(C(=O)CCCCCCCN3CCC(c4ccccc4)(c4ccccc4)CC3)c(-c3cccc([N+](=O)[O-])c3)c2c1=O [Compound 21]	50.1 nM	–
Cc1nc2nc(C)n(-c3ccccc3)c(=O)c2c(-c2cccc([N+](=O)[O-])c2)c1C(=O)CCCCCCCCCCN1CCC(c2ccccc2)(c2ccccc2)CC1 [Compound 2, 3,4-Dihydro-2,7-dimethyl-5-(3-nitrophenyl)-4-oxo-3-phenyl-6-[1-oxo-11-(4,4-diphenyl-1-piperidinyl)undecyl]pyrido[2,3-d]pyrimidine hydrochloride]	63.1 nM	–
Cc1nc2nc(C)n(CCN3CCCCC3)c(=O)c2c(-c2cccc([N+](=O)[O-])c2)c1C(=O)CCCCCCCCCCN1CCC(c2ccccc2)(c2ccccc2)CC1 [Compound 16]	79.4 nM	–
Cc1nc2ncn(Cc3ccccc3)c(=O)c2c(-c2cccc([N+](=O)[O-])c2)c1C(=O)CCCCCCCCCCN1CCC(c2ccccc2)(c2ccccc2)CC1 [Compound 10]	25.1 nM	–
CCCCn1c(C)nc2nc(C)c(C(=O)CCCCCCCN3CCC(c4ccccc4)(c4ccccc4)CC3)c(-c3cccc([N+](=O)[O-])c3)c2c1=O [Compound 20]	31.6 nM	–
Cc1nc2nc(C)n(CCN3CCOCC3)c(=O)c2c(-c2cccc([N+](=O)[O-])c2)c1C(=O)CCCCCCCN1CCC(c2ccccc2)(c2ccccc2)CC1 [Compound 5]	–	6.8
